Test results as given in PMC11472058, “Trinucleotide cap analogs with triphosphate chain modifications: synthesis, properties, and evaluation as mRNA capping reagents” (Nucleic Acids Research, 2024).

Target: T1, human eIF4E1a (Homo sapiens, UniProt P06730)
T1 construct: made in house; host or cells: E. coli Rosetta 2 (DE3)pLysS
Assay: Fluorescence quenching titration (FQT) binding assay with eIF4E
Protocol: The human eIF4E1a protein was expressed without affinity tag in E. coli Rosseta 2 (DE3)pLysS strain (Novagen) under conditions leading to accumulation of the produced protein in inclusion bodies ([48]). The protein was extracted from inclusion bodies with buffer containing 6 M guanidine hydrochloride, refolded by one-step dialysis against 50 mM HEPES/KOH (pH 7.2), 100 mM KCl, 0.5 mM EDTA, 2 mM DTT, and purified by ion exchange chromatography on HiTrap SP HP 5 ml column (GE Healthcare) using salts gradient. Finally, protein was filtered using Ultrafree MC-HV Centrifugal PVDF filters with 0.45 μm membrane pore (Millipore) to remove protein aggregates and its concentration was determined spectrophotometrically assuming the theoretical extinction coefficient ϵ280nm = 52 940 L mol^−1cm^−1—calculated from amino acid composition using algorithm on ExPASy Server.
Fluorescence titration measurements were carried out on a LS-55 spectrofluorometer (Perkin Elmer Co., Norwalk, CT, USA) in a quartz semi-micro cuvette (Hellma, Germany) with optical lengths 4 mm and 10 mm for absorption and emission, respectively, which was thermostated at 20.0 ± 0.2 °C. The titrations were performed in 50 mM Hepes/KOH pH 7.2, 100 mM KCl, 0.5 mM EDTA and 1 mM DTT by adding 1 μl aliquots of increasing concentrations of the cap solutions to 1.4 ml of 0.1 μM eIF4E1a solution. The eIF4E1a fluorescence was excited at 280 nm and the fluorescence intensity was monitored at a single wavelength 340 nm. The measured fluorescence intensities were corrected for dilution (<4%) and for the inner filter effect. Association equilibrium constants (Kas) were obtained by fitting the theoretical curve for fluorescence intensity (F) upon total concentration of cap analogs ([L]) to the titration data according to the equation: […]
with the concentration of the cap analogs–eIF4E1a complex [cx] given by:
where Δϕ stands for the difference between the fluorescence efficiencies of the apo- and cap analog bound proteins; ϕlig-free is the fluorescence efficiency of the free cap analog; F(0) is the initial fluorescence, and Pact is the total concentration of the active protein ([49]). The final KAS values were calculated as a weighted average from three independent titrations and represented as the KD values. Numerical least-squares nonlinear regression analysis was performed using ORIGIN 2021 from Microcal Software Inc., USA.
Recognition of the mRNA 5′ cap by translation initiation factor 4E (eIF4E) is considered to be the rate-limiting step for the entire translation process ([63],[64]), therefore we investigated the affinity of novel trinucleotide cap analogs to the canonical human eIF4E1a protein by fluorescence quenching titration (FQT; Table 1 column 1, Figure 3) ([65]). As a reference, we determined the dissociation constant between heIF4E1a and the trinucleotide cap-1 structure m^7GpppAmpG, which was equal to 42 nM and very close to the analogous value previously determined for mouse Δ27NeIF4E (46 nM) ([12]). In the case of all modifications tested, the KD values for cap-heIF4E1a complexes are consistent with the results previously obtained for dinucleotide counterparts and murine eIF4E protein, although the magnitude of the modification effect is generally lower. The most tightly bound tetraphosphate analogs (compounds 10–12) show KD values of 6–7 nM, which means that their affinity is about 6-fold higher compared to the triphosphate counterparts. The affinities decrease upon CH2 or CCl2 modification of the tetraphosphate bridge (compounds 13–16), but they are still 4–5 times higher than for the triphosphate analogs with the same adenosine methylation pattern.

T1 sequence (P06730 whole entry): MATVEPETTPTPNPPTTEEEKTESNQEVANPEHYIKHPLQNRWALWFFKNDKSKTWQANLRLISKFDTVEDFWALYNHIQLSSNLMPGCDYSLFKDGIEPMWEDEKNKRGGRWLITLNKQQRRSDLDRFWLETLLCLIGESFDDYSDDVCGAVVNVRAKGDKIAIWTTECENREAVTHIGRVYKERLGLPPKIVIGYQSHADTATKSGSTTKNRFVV

CO[C@@H]1[C@H](OP(=O)(O)OC[C@H]2O[C@@H](n3cnc4c(=O)[nH]c(N)nc43)[C@H](O)[C@@H]2O)[C@@H](CSP(=O)([O-])OP(=O)(O)OP(=O)(O)OC[C@H]2O[C@@H](n3c[n+](C)c4c(O)nc(N)nc43)[C@H](O)[C@@H]2O)O[C@H]1n1cnc2c(N)ncnc21 [Compound 8, m^7Gppp^5’SAmpG]
effect of modification on binding affinity for heIF4E1a (in words) (compared to corresponding triphosphates): virtually no effect on binding affinity | Kd (fluorescence quenching titration, 20 °C, pH 7.2, average of triplicates ± SD, read-out: heIF4E1a KD): 48.7 ± 1.2 nM
